The target of experiment [1] is human M1 receptor (Homo sapiens (Human), UniProt P11229). Description: Radioligand (tritiated N-methylscopolamine) binding assay, M1. The note with it: CHO cell membranes expressing human M1; 1.5 nM tritiated N-methylscopolamine; 90 min, 37° C.; read-out: Ki against M1 receptor (Table 21, M1). An outline of the steps: (§1)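 Ki values come from displacement of 1.5 nM radioligand from membranes of receptor-expressing CHO cells, with filter-trapped radioactivity counted after rapid vacuum filtration. Twelve compound concentrations (10 μM to […]) were incubated for 90 min at 37 °C at pH 7.4.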
Chain of human M1 receptor (P11229 whole entry): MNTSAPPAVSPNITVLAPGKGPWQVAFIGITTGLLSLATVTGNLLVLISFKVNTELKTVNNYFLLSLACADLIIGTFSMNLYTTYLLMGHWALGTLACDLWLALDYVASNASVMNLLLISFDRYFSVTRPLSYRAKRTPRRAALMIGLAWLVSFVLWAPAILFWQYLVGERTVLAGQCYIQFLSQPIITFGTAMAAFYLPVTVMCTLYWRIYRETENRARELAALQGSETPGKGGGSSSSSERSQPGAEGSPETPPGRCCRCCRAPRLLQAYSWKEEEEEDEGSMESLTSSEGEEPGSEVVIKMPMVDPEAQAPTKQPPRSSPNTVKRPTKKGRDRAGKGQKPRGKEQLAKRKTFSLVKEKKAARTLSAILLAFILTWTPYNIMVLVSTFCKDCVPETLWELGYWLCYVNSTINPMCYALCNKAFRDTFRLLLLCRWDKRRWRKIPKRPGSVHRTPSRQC

In experiment [2] the target is human M2 receptor (Homo sapiens (Human), UniProt P08172). Description: Radioligand (tritiated N-methylscopolamine) binding assay, M2. Particulars: CHO cell membranes expressing human M2; 1.5 nM tritiated N-methylscopolamine; 90 min, 37° C.; read-out: Ki against M2 receptor (Table 21, M2). The method in brief: as §1
Chain of human M2 receptor (P08172 whole entry): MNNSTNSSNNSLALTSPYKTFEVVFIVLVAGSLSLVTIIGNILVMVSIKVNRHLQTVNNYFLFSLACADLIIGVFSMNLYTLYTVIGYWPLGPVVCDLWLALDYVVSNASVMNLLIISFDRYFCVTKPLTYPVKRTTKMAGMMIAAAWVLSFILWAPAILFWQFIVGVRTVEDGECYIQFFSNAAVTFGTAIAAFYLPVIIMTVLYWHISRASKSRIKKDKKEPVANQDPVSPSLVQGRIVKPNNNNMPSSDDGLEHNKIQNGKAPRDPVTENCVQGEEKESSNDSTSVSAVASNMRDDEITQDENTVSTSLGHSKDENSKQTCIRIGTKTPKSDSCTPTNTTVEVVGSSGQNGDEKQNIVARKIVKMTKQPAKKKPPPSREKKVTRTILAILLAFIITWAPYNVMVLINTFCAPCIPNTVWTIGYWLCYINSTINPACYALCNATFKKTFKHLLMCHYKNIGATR
Experiment [3] has as its target human M3 receptor (Homo sapiens (Human), UniProt P20309). Description: Radioligand (tritiated N-methylscopolamine) binding assay, M3. The note with it: CHO cell membranes expressing human M3; 1.5 nM tritiated N-methylscopolamine; 90 min, 37° C.; read-out: Ki against M3 receptor (Table 21, M3). An outline of the steps: as §1
For experiment [4], the target named is human M4 receptor (Homo sapiens (Human), UniProt P08173). Description: Radioligand (tritiated N-methylscopolamine) binding assay, M4. The note with it: Ki against the M4 receptor; membranes from CHO cells expressing human M4; tritiated N-methylscopolamine 1.5 nM; read-out: Ki. An outline of the steps: as §1
Chain of human M4 receptor (P08173 whole entry): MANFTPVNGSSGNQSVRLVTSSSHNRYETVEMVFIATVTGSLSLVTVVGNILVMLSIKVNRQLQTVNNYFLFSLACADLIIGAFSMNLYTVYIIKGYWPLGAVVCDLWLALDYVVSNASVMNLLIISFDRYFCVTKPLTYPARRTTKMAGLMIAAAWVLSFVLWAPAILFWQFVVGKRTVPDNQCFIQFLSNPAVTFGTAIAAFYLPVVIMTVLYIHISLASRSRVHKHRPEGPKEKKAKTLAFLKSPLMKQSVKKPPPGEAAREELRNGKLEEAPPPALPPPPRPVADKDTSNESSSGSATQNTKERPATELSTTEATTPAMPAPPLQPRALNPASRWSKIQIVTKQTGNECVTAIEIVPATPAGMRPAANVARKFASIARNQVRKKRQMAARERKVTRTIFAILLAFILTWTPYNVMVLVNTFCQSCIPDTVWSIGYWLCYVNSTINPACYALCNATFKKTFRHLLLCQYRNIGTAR
In experiment [5] the target is human M5 receptor (Homo sapiens (Human), UniProt P08912). Description: Radioligand (tritiated N-methylscopolamine) binding assay, M5. Particulars: CHO cell membranes expressing human M5; 1.5 nM tritiated N-methylscopolamine; 90 min, 37° C.; read-out: Ki against M5 receptor (Table 21, M5). An outline of the steps:
as §1

Data on 19 compounds can be found in patent publication US11033539B2, “Compounds of formulas (VII), (VIII), (IX), (XI), (XII), (XIII), and (XIV) as muscarinic receptor 4(M4) antagonists for treating neurological diseases” (Neurocrine Biosciences, Inc., priority 2015, dated 2021).

Chain of human M5 receptor (P08912 whole entry): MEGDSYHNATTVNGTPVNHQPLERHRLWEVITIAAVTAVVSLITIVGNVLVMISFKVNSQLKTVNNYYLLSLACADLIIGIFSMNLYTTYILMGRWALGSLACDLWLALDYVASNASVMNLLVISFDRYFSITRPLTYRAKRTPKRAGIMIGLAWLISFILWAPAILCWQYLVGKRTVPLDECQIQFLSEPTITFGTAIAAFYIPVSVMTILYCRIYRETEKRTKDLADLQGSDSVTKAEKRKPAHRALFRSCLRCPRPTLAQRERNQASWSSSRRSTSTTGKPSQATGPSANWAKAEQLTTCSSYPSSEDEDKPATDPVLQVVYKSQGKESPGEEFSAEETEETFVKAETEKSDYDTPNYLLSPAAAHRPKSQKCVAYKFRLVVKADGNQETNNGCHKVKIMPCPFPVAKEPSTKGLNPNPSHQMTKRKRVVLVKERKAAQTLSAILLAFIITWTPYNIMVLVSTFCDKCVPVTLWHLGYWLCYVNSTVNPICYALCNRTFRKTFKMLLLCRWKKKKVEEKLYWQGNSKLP
Chain of human M3 receptor (P20309 whole entry): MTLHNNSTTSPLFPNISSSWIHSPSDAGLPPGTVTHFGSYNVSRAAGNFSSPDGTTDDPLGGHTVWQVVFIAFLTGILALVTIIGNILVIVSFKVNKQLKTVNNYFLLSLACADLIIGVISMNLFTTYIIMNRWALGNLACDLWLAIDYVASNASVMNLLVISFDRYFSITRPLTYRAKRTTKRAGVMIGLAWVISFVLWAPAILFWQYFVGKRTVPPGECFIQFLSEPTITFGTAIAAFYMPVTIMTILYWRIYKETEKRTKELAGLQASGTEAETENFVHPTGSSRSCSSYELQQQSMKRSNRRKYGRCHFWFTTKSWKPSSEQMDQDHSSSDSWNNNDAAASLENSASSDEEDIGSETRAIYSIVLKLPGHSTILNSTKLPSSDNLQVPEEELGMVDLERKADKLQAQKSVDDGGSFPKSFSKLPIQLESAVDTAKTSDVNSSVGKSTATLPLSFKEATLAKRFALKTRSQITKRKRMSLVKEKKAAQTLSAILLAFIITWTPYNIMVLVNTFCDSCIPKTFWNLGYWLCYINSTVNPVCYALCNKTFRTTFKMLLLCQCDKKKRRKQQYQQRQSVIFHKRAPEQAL

A word on the Ki: it is the dissociation constant of the complex between target and ligand, obtained from inhibition or displacement. As for `C[C@@H]1CN(c2cc(F)c(F)c(F)c2)CCN1C(=O)NCCC1CCN(Cc2ccc(O)cc2)CC1` [6-27, (2R)-N-(2-{1-[(4-hydroxyphenyl)methyl]piperidin-4-yl}ethyl)-2-methyl-4-(3,4,5-trifluorophenyl)piperazine-1-carboxamide], the Ki in experiment [1] is 0.1 to 1 µM; in experiment [2] it was 0.01 to 0.1 µM; in experiment [3] it was 0.1 to 1 µM; in experiment [4], less than 0.01 µM; in experiment [5], greater than 1 µM.

Consider `Cc1ccccc1CN1CCC(CCNC(=O)N2CCN(c3ncc(C(F)(F)F)cn3)C[C@H]2C)CC1` [6-35, (2R)-2-methyl-N-(2-{1-[(2-methylphenyl)methyl]piperidin-4-yl}ethyl)-4-[5-(trifluoromethyl)pyrimidin-2-yl]piperazine-1-carboxamide], for which the Ki is 0.1 to 1 µM in experiment [1]; 0.01 to 0.1 µM in experiment [2]; 0.1 to 1 µM in experiment [3]; less than 0.01 µM in experiment [4]; greater than 1 µM in experiment [5].

Regarding `C[C@@H]1CN(c2ncc(C(F)(F)F)cn2)CCN1C(=O)NCCC1CCN(Cc2cccc(F)c2)CC1` [6-36, (2R)-N-(2-{1-[(3-fluorophenyl)methyl]piperidin-4-yl}ethyl)-2-methyl-4-[5-(trifluoromethyl)pyrimidin-2-yl]piperazine-1-carboxamide], the Ki in experiment [1] was 0.1 to 1 µM; in experiment [2] it was 0.1 to 1 µM; in experiment [3], greater than 1 µM; in experiment [4], less than 0.01 µM; in experiment [5], greater than 1 µM.

As to `C[C@@H]1CN(c2ncc(C(F)(F)F)cn2)CCN1C(=O)NCCC1CCN(Cc2ccc(F)cc2)CC1` [6-37, (2R)-N-(2-{1-[(4-fluorophenyl)methyl]piperidin-4-yl}ethyl)-2-methyl-4-[5-(trifluoromethyl)pyrimidin-2-yl]piperazine-1-carboxamide], the Ki was 0.1 to 1 µM in experiment [1]; 0.01 to 0.1 µM in experiment [2]; greater than 1 µM in experiment [3]; less than 0.01 µM in experiment [4]; greater than 1 µM in experiment [5].

As to `C[C@@H]1CN(c2ncc(C(F)(F)F)cn2)CCN1C(=O)NCCC1CCN(Cc2cccc(C#N)c2)CC1` [6-40, (2R)-N-(2-{1-[(3-cyanophenyl)methyl]piperidin-4-yl}ethyl)-2-methyl-4-[5-(trifluoromethyl)pyrimidin-2-yl]piperazine-1-carboxamide], the Ki is 0.1 to 1 µM in experiment [1]; 0.01 to 0.1 µM in experiment [2]; 0.1 to 1 µM in experiment [3]; less than 0.01 µM in experiment [4]; greater than 1 µM in experiment [5].

In the case of `C[C@@H]1CN(c2ncc(C#N)cn2)C[C@H](C)N1C(=O)NCCC1CCN(Cc2ccc(O)cc2)CC1` [6-42, (2R,6S)-4-(5-cyanopyrimidin-2-yl)-N-(2-{1-[(4-hydroxyphenyl)-methyl]piperidin-4-yl}ethyl)-2,6-dimethylpiperazine-1-carboxamide], the Ki in experiment [1] is greater than 1 µM; in experiment [2], 0.01 to 0.1 µM; in experiment [3], 0.1 to 1 µM; in experiment [4] it was less than 0.01 µM; in experiment [5], greater than 1 µM.

As to `C[C@@H]1CN(c2ncc(C#N)cn2)C[C@H](C)N1C(=O)NCCC1CCN(Cc2cccc(F)c2)CC1` [6-46, (2R,6S)-4-(5-cyanopyrimidin-2-yl)-N-(2-{1-[(3-fluorophenyl)-methyl]piperidin-4-yl}ethyl)-2,6-dimethylpiperazine-1-carboxamide], the inhibition constant Ki in experiment [1] was greater than 1 µM; in experiment [2], less than 0.01 µM; in experiment [3] it was greater than 1 µM; in experiment [4] it was less than 0.01 µM; in experiment [5], greater than 1 µM.

For the compound `C[C@@H]1CN(c2ncc(C#N)cn2)C[C@H](C)N1C(=O)NCCC1CCN(Cc2ccc3[nH]ccc3c2)CC1` [6-47, (2R,6S)-4-(5-cyanopyrimidin-2-yl)-N-{2-[1-(1H-indol-5-ylmethyl)-piperidin-4-yl]ethyl}-2,6-dimethylpiperazine-1-carboxamide], the inhibitory constant (Ki) was 0.1 to 1 µM in experiment [1]; less than 0.01 µM in experiment [2]; 0.1 to 1 µM in experiment [3]; less than 0.01 µM in experiment [4]; 0.1 to 1 µM in experiment [5].

As for `C[C@@H]1CN(c2ncc(C#N)cn2)C[C@H](C)N1C(=O)NCCC1CCN(Cc2ccc(F)cc2)CC1` [6-48, (2R,6S)-4-(5-cyanopyrimidin-2-yl)-N-(2-{1-[(4-fluorophenyl)methyl]-piperidin-4-yl}ethyl)-2,6-dimethylpiperazine-1-carboxamide], the Ki was greater than 1 µM in experiment [1]; 0.01 to 0.1 µM in experiment [2]; greater than 1 µM in experiment [3]; less than 0.01 µM in experiment [4]; greater than 1 µM in experiment [5].

`C[C@@H]1CN(c2cnc(C(F)(F)F)nc2)C[C@H](C)N1C(=O)NCCC1CCN(Cc2ccc3[nH]ccc3c2)CC1` [6-50, (2R,6S)-N-{2-[1-(1H-indol-5-ylmethyl)piperidin-4-yl]ethyl}-2,6-dimethyl-4-[2-(trifluoromethyl)pyrimidin-5-yl]piperazine-1-carboxamide]: the Ki in experiment [1] is 0.1 to 1 µM; in experiment [2], 0.01 to 0.1 µM; in experiment [3], 0.1 to 1 µM; in experiment [4], less than 0.01 µM; in experiment [5] it was greater than 1 µM.

Take `C[C@@H]1CN(c2cc(F)c(F)c(F)c2)CCN1C(=O)NCCC1(O)CCN(Cc2ccccc2)CC1` [7-1, (2R)-N-[2-(1-benzyl-4-hydroxypiperidin-4-yl)ethyl]-2-methyl-4-(3,4,5-trifluorophenyl)piperazine-1-carboxamide]: the Ki in experiment [1] was greater than 1 µM; in experiment [2], greater than 1 µM; in experiment [3], greater than 1 µM; in experiment [4] it was less than 0.01 µM; in experiment [5] it was greater than 1 µM.

In the case of `C[C@@H]1CN(c2ccc(F)c(C(F)F)c2)CCN1C(=O)NCCC1CCN(Cc2ccccc2)CC1` [7-9, (2R)-N-[2-(1-benzylpiperidin-4-yl)ethyl]-4-[3-(difluoromethyl)-4-fluorophenyl]-2-methylpiperazine-1-carboxamide], the Ki is 0.1 to 1 µM in experiment [1]; 0.1 to 1 µM in experiment [2]; greater than 1 µM in experiment [3]; less than 0.01 µM in experiment [4]; greater than 1 µM in experiment [5].

Turning to `C[C@@H]1CN(c2ccc(OC(F)(F)F)c(C#N)c2)CCN1C(=O)NC[C@H](O)C1CCN(Cc2ccccc2)CC1` [7-10, (2R)-N-[(2R)-2-(1-benzylpiperidin-4-yl)-2-hydroxyethyl]-4-[3-cyano-4-(trifluoromethoxy)phenyl]-2-methylpiperazine-1-carboxamide], the Ki was greater than 1 µM in experiment [1]; 0.1 to 1 µM in experiment [2]; greater than 1 µM in experiment [3]; less than 0.01 µM in experiment [4]; greater than 1 µM in experiment [5].

Turning to `C[C@@H]1CN(c2ccc(F)c(C#N)c2)CCN1C(=O)NCCC1(O)CCN(Cc2ccccc2)CC1` [7-11, (2R)-N-[2-(1-benzyl-4-hydroxypiperidin-4-yl)ethyl]-4-(3-cyano-4-fluorophenyl)-2-methylpiperazine-1-carboxamide], the inhibition constant Ki was greater than 1 µM in experiment [1]; greater than 1 µM in experiment [2]; greater than 1 µM in experiment [3]; less than 0.01 µM in experiment [4]; greater than 1 µM in experiment [5].

Turning to `C[C@@H]1CN(c2ccc(F)c(C#N)c2)CCN1C(=O)NC[C@H](O)C1CCN(Cc2ccccc2)CC1` [7-12, (2R)-N-[(2R)-2-(1-benzylpiperidin-4-yl)-2-hydroxyethyl]-4-(3-cyano-4-fluorophenyl)-2-methylpiperazine-1-carboxamide], the Ki is greater than 1 µM in experiment [1]; greater than 1 µM in experiment [2]; greater than 1 µM in experiment [3]; less than 0.01 µM in experiment [4]; greater than 1 µM in experiment [5].

For `O=C(NCCC1CCN(Cc2ccccc2)CC1)N1CCC(c2ccc(C(F)(F)F)cc2)CC1` [8-1, N-[2-(1-benzylpiperidin-4-yl)ethyl]-4-[4-(trifluoromethyl)phenyl]piperidine-1-carboxamide], the Ki in experiment [1] is 0.1 to 1 µM; in experiment [2], 0.1 to 1 µM; in experiment [3], 0.1 to 1 µM; in experiment [4], less than 0.01 µM; in experiment [5], 0.1 to 1 µM.

For `N#Cc1cnc(N2CC3CCC(C2)N3C(=O)NCCC2CCN(Cc3ccccc3)CC2)nc1` [8-48, N-[2-(1-benzylpiperidin-4-yl)ethyl]-3-(5-cyanopyrimidin-2-yl)-3,8-diazabicyclo[3.2.1]octane-8-carboxamide], the Ki in experiment [1] is 0.01 to 0.1 µM; in experiment [2], less than 0.01 µM; in experiment [3], 0.1 to 1 µM; in experiment [4] it was less than 0.01 µM; in experiment [5], 0.1 to 1 µM.

`O=C(NCCC1CCN(Cc2ccccc2)CC1)C1CCN(c2ccc(OC(F)(F)F)cc2)CC1` [9-1, N-[2-(1-benzylpiperidin-4-yl)ethyl]-1-[4-(trifluoromethoxy)phenyl]piperidine-4-carboxamide]: the inhibitory constant (Ki) in experiment [1] is greater than 1 µM; in experiment [2], 0.1 to 1 µM; in experiment [3], greater than 1 µM; in experiment [4], less than 0.01 µM; in experiment [5], greater than 1 µM.

Turning to `C[C@@H]1CN(c2cc(F)cc(C#N)c2)CCN1C(=O)NC[C@@H](O)C1CCN(Cc2ccccc2)CC1` [9-5, (2R)-N-[(2S)-2-(1-benzylpiperidin-4-yl)-2-hydroxyethyl]-4-(3-cyano-5-fluorophenyl)-2-methylpiperazine-1-carboxamide], the Ki is greater than 1 µM in experiment [1]; greater than 1 µM in experiment [2]; greater than 1 µM in experiment [3]; less than 0.01 µM in experiment [4]; greater than 1 µM in experiment [5].
